According to patent US20110257436A1, “PROCESS FOR THE MANUFACTURE OF EASILY DISPERSIBLE, SOLID N'-HYDROXY-N-CYCLOHEXYL-DIAZENIUM OXIDE SALTS” (BASF SE, priority 2008, published 2011):

How the values were obtained:
[1] = particle size distribution analysis (volume distribution) by laser diffraction of aqueous dispersion; format: physicochemical
Text: The D10, D50 and D90 represent the median or the 10th, 50th, and the 90th percentile of the particle size distribution (volume distribution), respectively. That is, the D50 (D10/D90) is a value on the distribution such that 50% (10%/90%) of the particles have a particle size of this value or less. The volume averaged particle size distribution may be measured with an aqueous dispersion of the M^n+(HDO)n by techniques known to the skilled artisan, e.g. by laser diffraction techniques.
Furthermore, a particle size distribution analysis (volume distribution) was performed using a conventional laser diffraction apparatus (Mastersizer® 2000, Fa. Malvern Instruments). For the measurement, 1 g of Cu(HDO)2 was dispersed in 100 ml of water sample and 1 ml of a solution (1% by weight) of a nonionic surfactant (polyethylene glycole p-(1,1,3,3-tetramethylbutyl)-phenyl ether, around 9-10 ethylene oxide groups). […]

[2] = cited from earlier work
[3] = dispersion time 1 min, 1 g in 100 ml water with nonionic surfactant

## O=NN([O-])C1CCCCC1.O=NN([O-])C1CCCCC1.[Cu+2] [Cu(HDO)2, Cu-salt of N′-hydroxy-N-cyclohexyldiazenium oxide]
[1]; after 10 min dispersion
  D10 value: 14 μm
  D50: 45 μm
  D90: 108 μm
[1]; after 30 min dispersion
  D10 value: 12 μm
  D50: 41 μm
  D90: 93 μm
[1]; [3]
  D10 value: 16 μm
  D50: 49 μm
  D90: 140 μm
[2]
  solubility in water: around 30 ppm

## [Cu+2].[O-]/N=[N+](\[O-])C1CCCCC1.[O-]/N=[N+](\[O-])C1CCCCC1 [Comparative Example, reference compound]
[1]; after 10 min dispersion
  D10 value: 2 μm
  D50: 15 μm
  D90: 79 μm
[1]; after 30 min dispersion
  D10 value: 2 μm
  D50: 12 μm
  D90: 53 μm
[1]; [3]
  D10 value: 3 μm
  D50: 23 μm
  D90: 306 μm
